Data on six compounds can be found in patent US8759564B2, “Amidoacetonitrile compounds having pesticidal activity” (Novartis AG, priority 2009, dated 2014).

For series [1], the system named is Teladorsagia circumcincta. Kind of series: In-vivo test in sheep using peroral application. The following applies: oral, worm burden in abomasum 19 to 21 days after treatment. Here is the method:
3. In-Vivo Test on Teladorsagia circumcincta in Sheep Using Peroral Application Sheep are infected with 6,000 to 8,000 third stage larvae of Teladorsagia circumcincta (Tca) 7 to 5 days prior to treatment Animals in the treated groups are treated orally at a dose of 2 or 5 mg per kg bodyweight. […] The animals are euthanized 19 to 21 days after treatment and the worm burden in the abomasum is examined. Efficacy assessment of the compounds is determined by comparison of the treated and untreated groups worm counts, calculated using Abbott's formula as follows: % efficacy=100×(C−T)/C, where C is the geometric mean worm count of each species for the untreated control group and T, the geometric mean worm count of each species for the treated group.

The test system of series [2] is Haemonchus contortus. The experiment in a line: In-vivo test in Mongolian gerbils using peroral application. The note with it: dose 0.32 mg/kg, H. contortus. On the procedure:
(§1) 2. In-vivo Test on Trichostrongylus colubriformis and Haemonchus contortus in Mongolian Gerbils (Meriones unquiculatus) Using Peroral Application Six to eight week old Mongolian gerbils are infected through a stomach tube with ca. 2000 third instar larvae each of T. colubriformis and H contortus. 6 days after infection, the gerbils are treated by peroral application with the test compounds, dissolved in a mixture of 2 pasts DMSO and 1 part polyethylene glycol (PEG 400). On day 9 (3 days after treatment), when most of the H. cantortus that are still present are late 4th instar larvae and most of the T. colubriformis are immature adults, the gerbils are killed in order to count the worms. The efficacy is calculated as the % reduction of the number of worms in each gerbil, compared with the geometric average of number of worms from 6 infected and untreated gerbils.

Series [3] concerns Trichostrongylus colubriformis. The description is as above. The note with it: dose 0.32 mg/kg, T. colubriformis. On the procedure:
as §1

The subject of series [4] is Ostertagia ostertagi. The experiment in a line: In-vivo test in cattle using peroral application. The following applies: oral, worm burden in abomasum 23 to 28 days after treatment. On the procedure: 4. In-vivo Test on Ostertagia ostertagi in Cattle Using Peroral Application Cattle are infected with 7,000 to 10,000 third stage larvae of Ostertagia ostertagi (Oo) 7 to 5 days prior to treatment. […] The animals are euthanized 23 to 28 days after treatment and the worm burden in the abomasum is examined. Efficacy assessment of the compounds is determined by comparison of the treated and untreated groups worm counts, calculated using Abbott's formula as follows: % efficacy=100×(C−T)/C; where C is the geometric mean worm count of each species for the untreated control group and T, the geometric mean worm count of each species for the treated group.

In the case of `CC(C#N)(COc1cc(Cl)ccc1Oc1ccc(Cl)cc1Cl)NC(=O)c1ccc(OC(F)(F)F)cc1` (stereo not shown) [reference compound], the “Efficacy against Tca [%]” value in series [1] (dose 5 mg/kg) was found to be 15%.
As to `CC(C#N)(COc1cc(C#N)ccc1Oc1ccc(OC(F)(F)F)cc1Cl)NC(=O)c1ccc(OC(F)(F)F)cc1` (racemic) [Compound No. 1.1, N-[1-cyano-1-methyl-2-(5-cyano-2-{2-chloro-4-trifluoromethoxy-phenoxy}-phenoxy)-ethyl]-4-trifluoromethoxybenzamide], the “efficacy (% reduction of the number of worms)” value in series [2] and in series [3] was 100% throughout. For the same compound, the “Efficacy against Tca [%]” value in series [1] (dose 2 mg/kg) amounted to 99%. Further, the “Efficacy against Oo [%]” value in series [4] (dose 5 mg/kg) was 100%.
Take `CC(C#N)(COc1cc(C#N)ccc1Oc1ccc(Cl)cc1Cl)NC(=O)c1ccc(OC(F)(F)F)cc1` (stereo not shown) [reference compound]: the “Efficacy against Tca [%]” value in series [1] (dose 5 mg/kg) is listed as 0%. Further, the “Efficacy against Oo [%]” value in series [4] (dose 20 mg/kg) is reported as 55%.
Regarding `CC(C#N)(COc1cc(C#N)ccc1Oc1ccc(OC(F)(F)F)cc1Cl)NC(=O)c1ccc(S(=O)(=O)C(F)(F)F)cc1` (racemic) [Compound No. 1.12, N-[1-cyano-1-methyl-2-(5-cyano-2-{2-chloro-4-trifluoromethoxy-phenoxy}-phenoxy)-ethyl]-4-trifluoromethylsulfonylbenzamide], the melting point lay within 128 to 130 °C. The “efficacy (% reduction of the number of worms)” value in series [2] was determined as 98%. The “efficacy (% reduction of the number of worms)” value in series [3] turned out to be 98%. The “Efficacy against Tca [%]” value in series [1] (dose 2 mg/kg) stood at 99%. The “Efficacy against Oo [%]” value in series [4] (dose 5 mg/kg) is 100%.
As to `C[C@@](C#N)(COc1cc(C#N)ccc1Oc1ccc(OC(F)(F)F)cc1Cl)NC(=O)c1ccc(OC(F)(F)F)cc1` [Compound No. 1.3, N-[(1R)-1-cyano-2-(5-cyano-2-{2-chloro-4-trifluoromethoxyphenoxy}-phenoxy)-1-methylethyl]-4-trifluoromehoxy-benzamide], the “efficacy (% reduction of the number of worms)” value in series [2] and in series [3] was 100% throughout.
In turn, `CC(C#N)(COc1cc(C#N)ccc1Oc1ccc(OC(F)(F)F)cc1Cl)NC(=O)c1ccc(SC(F)(F)F)cc1` (racemic) [Compound No. 1.7, N-[1-cyano-1-methyl-2-(5-cyano-2-{2-chloro-4-trifluoromethoxy-phenoxy}-phenoxy)-ethyl]-4-trifluoromethylsulfanylbenzamide] had a melting point of 136 to 137 °C. Besides, the “efficacy (% reduction of the number of worms)” value in series [2] is 100%. In addition, in series [3], the “efficacy (% reduction of the number of worms)” value was 100%. In addition, the “Efficacy against Tca [%]” value in series [1] (dose 2 mg/kg) turned out to be 99%. In series [4] (dose 5 mg/kg), the “Efficacy against Oo [%]” value was 100%.
